# Earlier results in publication PMC5356695, “A phase 1 study of oral ridaforolimus in pediatric patients with advanced solid tumors” (Oncotarget, 2016).
# Legend:
# [1] = tested on: pediatric patients with advanced solid tumors; design: method as in PMID 27185573; details: dalotuzumab alone; cited from earlier work
# [2] = tested on: in vivo solid tumor models; design: method as in PMID 17635004; details: cited from earlier work
# [3] = tested on: neuroblastoma and high-grade glioma; design: method as in PMID 22033322; details: single-agent therapy; cited from earlier work
# [4] = tested on: children with recurrent or refractory solid tumors; design: method as in PMID 21690471; details: highest dose tested 150 mg/m^2, once weekly; cited from earlier work
# [5] = tested on: children with refractory solid tumors; design: method as in PMID 17947729; details: cited from earlier work
compound,measurement,setting,value
dalotuzumab: anti-IGF1R monoclonal antibody,Patients with confirmed partial response,[1],1 of 20
CO[C@H]1C[C@@H]2CC[C@@H](C)[C@@](O)(O2)C(=O)C(=O)N2CCCC[C@H]2C(=O)O[C@H]([C@H](C)C[C@@H]2CC[C@@H](O)[C@H](OC)C2)CC(=O)[C@H](C)/C=C(\C)[C@@H](O)[C@@H](OC)C(=O)[C@H](C)C[C@H](C)/C=C/C=C/C=C/1C [rapamycin],Models with significant differences in event-free survival distributions compared with controls,[2],27 of 36
CO[C@H]1C[C@@H]2CC[C@@H](C)[C@@](O)(O2)C(=O)C(=O)N2CCCC[C@H]2C(=O)O[C@H]([C@H](C)C[C@@H]2CC[C@@H](OC(=O)C(C)(CO)CO)[C@H](OC)C2)CC(=O)[C@H](C)/C=C(\C)[C@@H](O)[C@@H](OC)C(=O)[C@H](C)C[C@H](C)/C=C/C=C/C=C/1C [temsirolimus],Disease stabilization,[3],Prolonged stable disease was observed
same,Patients with DLT (grade 3 anorexia),[4],1 of 7
CO[C@H]1C[C@@H]2CC[C@@H](C)[C@@](O)(O2)C(=O)C(=O)N2CCCC[C@H]2C(=O)O[C@H]([C@H](C)C[C@@H]2CC[C@@H](OCCO)[C@H](OC)C2)CC(=O)[C@H](C)/C=C(\C)[C@@H](O)[C@@H](OC)C(=O)[C@H](C)C[C@H](C)/C=C/C=C/C=C/1C [everolimus],RP2D,"[5]; children, oral",5 mg/m^2
same,"Patients with DLTs (grade 3 increased ALT, mucositis, diarrhea)","[5]; highest dose of 6.5 mg/m^2, oral",3 of 3
